In ChEMBL document CHEMBL3885881, “DrugMatrix”:

Species: Rattus norvegicus
Assay: DrugMatrix - Regimen: Daily Repeat
Assay type: toxicity, organism-based, Sprague-Dawley
Design: regimen Daily Repeat, gender Male, age 6-8 weeks
Conditions: in vivo, po, route oral GAVAGE, vehicle .5 % CMC; for ABSOLUTE BASOPHIL / ABSOLUTE EOSINOPHIL / ABSOLUTE LYMPHOCYTE / ABSOLUTE MONOCYTE / ABSOLUTE SEGMENTED NEUTROPHIL / BASOPHIL / EOSINOPHIL / ERYTHROCYTE COUNT / HEMATOCRIT / HEMOGLOBIN / LEUKOCYTE COUNT / LYMPHOCYTE / MEAN CORPUSCULAR HEMOGLOBIN / MEAN CORPUSCULAR HEMOGLOBIN CONCENTRATION / MEAN CORPUSCULAR VOLUME / MONOCYTE / NEUTROPHIL / NUCLEATED RED BLOOD CELLS / PLATELET COUNT: tissue Blood; for ALANINE AMINOTRANSFERASE / ALBUMIN / ALKALINE PHOSPHATASE / ASPARTATE AMINOTRANSFERASE / BLOOD UREA NITROGEN / CARBON DIOXIDE / CHLORIDE / CHOLESTEROL / CREATINE PHOSPHOKINASE / CREATININE / GLUCOSE / LACTATE DEHYDROGENASE / LIPASE / PHOSPHORUS / POTASSIUM / SODIUM / TOTAL BILIRUBIN / TOTAL PROTEIN / URIC ACID: tissue Plasma
[1] = 17 mg/kg, 120 h, dose level Low, time 5 day
[2] = 85 mg/kg, 72 h, dose level High, time 3 day
[3] = 85 mg/kg, 120 h, dose level High, time 5 day

SMILES: CN1CCN(CCCN2c3ccccc3Sc3ccc(Cl)cc32)CC1 [PROCHLORPERAZINE]
- ABSOLUTE BASOPHIL [1]: 0 CELLS/uL
- ABSOLUTE EOSINOPHIL [1]: 40 CELLS/uL
- ABSOLUTE LYMPHOCYTE [1]: 12867.33 CELLS/uL
- ABSOLUTE MONOCYTE [1]: 40 CELLS/uL
- ABSOLUTE SEGMENTED NEUTROPHIL [1]: 986 CELLS/uL
- BASOPHIL [1]: 0%
- EOSINOPHIL [1]: 0.33%
- ERYTHROCYTE COUNT [1]: 5.56 x10E6/uL
- HEMATOCRIT [1]: 36.13%
- HEMOGLOBIN [1]: 14.37 G/DL
- LEUKOCYTE COUNT [1]: 13.93 x10E3/uL
- LYMPHOCYTE [1]: 92.33%
- MEAN CORPUSCULAR HEMOGLOBIN [1]: 25.87 pg
- MEAN CORPUSCULAR HEMOGLOBIN CONCENTRATION [1]: 39.77 G/DL
- MEAN CORPUSCULAR VOLUME [1]: 65.13 fL
- MONOCYTE [1]: 0.33%
- NEUTROPHIL [1]: 7%
- NUCLEATED RED BLOOD CELLS [1]: 0 /100WBC
- PLATELET COUNT [1]: 1289.67 x10E3/uL
- ALANINE AMINOTRANSFERASE [1]: 45.33 u/L
- ALBUMIN [1]: 4.27 G/DL
- ALKALINE PHOSPHATASE [1]: 464.33 u/L
- ASPARTATE AMINOTRANSFERASE [1]: 85 u/L
- BLOOD UREA NITROGEN [1]: 15.33 mg/dL
- CARBON DIOXIDE [1]: 27.33 mmol/L
- CHLORIDE [1]: 100.67 MEQ/L
- CHOLESTEROL [1]: 75.67 mg/dL
- CREATINE PHOSPHOKINASE [1]: 372 u/L
- CREATININE [1]: 0.12 mg/dL
- GLUCOSE [1]: 141.67 mg/dL
- LACTATE DEHYDROGENASE [1]: 401 u/L
- LIPASE [1]: 9 u/L
- PHOSPHORUS [1]: 12.43 mg/dL
- POTASSIUM [1]: 6.4 MEQ/L
- SODIUM [1]: 143.33 MEQ/L
- TOTAL BILIRUBIN [1]: 0.17 mg/dL
- TOTAL PROTEIN [1]: 6.1 G/DL
- URIC ACID [1]: 1.33 mg/dL
- ABSOLUTE BASOPHIL [2]: 0 CELLS/uL
- ABSOLUTE EOSINOPHIL [2]: 81.33 CELLS/uL
- ABSOLUTE LYMPHOCYTE [2]: 10099 CELLS/uL
- ABSOLUTE MONOCYTE [2]: 0 CELLS/uL
- ABSOLUTE SEGMENTED NEUTROPHIL [2]: 453 CELLS/uL
- BASOPHIL [2]: 0%
- EOSINOPHIL [2]: 0.67%
- ERYTHROCYTE COUNT [2]: 6.34 x10E6/uL
- HEMATOCRIT [2]: 40.77%
- HEMOGLOBIN [2]: 16.03 G/DL
- LEUKOCYTE COUNT [2]: 10.63 x10E3/uL
- LYMPHOCYTE [2]: 95.33%
- MEAN CORPUSCULAR HEMOGLOBIN [2]: 25.3 pg
- MEAN CORPUSCULAR HEMOGLOBIN CONCENTRATION [2]: 39.37 G/DL
- MEAN CORPUSCULAR VOLUME [2]: 64.3 fL
- MONOCYTE [2]: 0%
- NEUTROPHIL [2]: 4%
- NUCLEATED RED BLOOD CELLS [2]: 1 /100WBC
- PLATELET COUNT [2]: 1132 x10E3/uL
- ALANINE AMINOTRANSFERASE [2]: 31.33 u/L
- ALBUMIN [2]: 4.87 G/DL
- ALKALINE PHOSPHATASE [2]: 290 u/L
- ASPARTATE AMINOTRANSFERASE [2]: 67.33 u/L
- BLOOD UREA NITROGEN [2]: 24 mg/dL
- CARBON DIOXIDE [2]: 22.67 mmol/L
- CHLORIDE [2]: 108 MEQ/L
- CHOLESTEROL [2]: 89 mg/dL
- CREATINE PHOSPHOKINASE [2]: 161.33 u/L
- CREATININE [2]: 0.2 mg/dL
- GLUCOSE [2]: 145.67 mg/dL
- LACTATE DEHYDROGENASE [2]: 143.33 u/L
- LIPASE [2]: 8 u/L
- PHOSPHORUS [2]: 11.93 mg/dL
- POTASSIUM [2]: 6.09 MEQ/L
- SODIUM [2]: 150.37 MEQ/L
- TOTAL BILIRUBIN [2]: 0.2 mg/dL
- TOTAL PROTEIN [2]: 7.03 G/DL
- URIC ACID [2]: 2.53 mg/dL
- ABSOLUTE BASOPHIL [3]: 0 CELLS/uL
- ABSOLUTE EOSINOPHIL [3]: 0 CELLS/uL
- ABSOLUTE LYMPHOCYTE [3]: 10951.33 CELLS/uL
- ABSOLUTE MONOCYTE [3]: 241 CELLS/uL
- ABSOLUTE SEGMENTED NEUTROPHIL [3]: 641 CELLS/uL
- BASOPHIL [3]: 0%
- EOSINOPHIL [3]: 0%
- ERYTHROCYTE COUNT [3]: 6.41 x10E6/uL
- HEMATOCRIT [3]: 38.7%
- HEMOGLOBIN [3]: 15.23 G/DL
- LEUKOCYTE COUNT [3]: 11.83 x10E3/uL
- LYMPHOCYTE [3]: 92.67%
- MEAN CORPUSCULAR HEMOGLOBIN [3]: 23.73 pg
- MEAN CORPUSCULAR HEMOGLOBIN CONCENTRATION [3]: 39.33 G/DL
- MEAN CORPUSCULAR VOLUME [3]: 60.37 fL
- MONOCYTE [3]: 2%
- NEUTROPHIL [3]: 5.33%
- NUCLEATED RED BLOOD CELLS [3]: 0 /100WBC
- PLATELET COUNT [3]: 1133 x10E3/uL
- ALANINE AMINOTRANSFERASE [3]: 46.33 u/L
- ALBUMIN [3]: 4.37 G/DL
- ALKALINE PHOSPHATASE [3]: 354.33 u/L
- ASPARTATE AMINOTRANSFERASE [3]: 99.67 u/L
- BLOOD UREA NITROGEN [3]: 21.33 mg/dL
- CARBON DIOXIDE [3]: 24.67 mmol/L
- CHLORIDE [3]: 105.67 MEQ/L
- CHOLESTEROL [3]: 84.67 mg/dL
- CREATINE PHOSPHOKINASE [3]: 760.33 u/L
- CREATININE [3]: 0.23 mg/dL
- GLUCOSE [3]: 146 mg/dL
- LACTATE DEHYDROGENASE [3]: 421 u/L
- LIPASE [3]: 9 u/L
- PHOSPHORUS [3]: 11.03 mg/dL
- POTASSIUM [3]: 6.4 MEQ/L
- SODIUM [3]: 147.97 MEQ/L
- TOTAL BILIRUBIN [3]: 0.27 mg/dL
- TOTAL PROTEIN [3]: 6.17 G/DL
- URIC ACID [3]: 1.8 mg/dL
